From paper PMC6010013, “Synthesis, physiochemical property and antimicrobial activity of novel quaternary ammonium salts” (Journal of Enzyme Inhibition and Medicinal Chemistry, 2017)

Legend:
Cytotoxicity, MTT assay = assay type: cell-based, human; settings: human, MTT, 24 h
Procedure: These six series of antimicrobial compounds may be applied to daily or clinical disinfectants for unbroken skin and trauma, or agricultural fungicides alternatively. Thus, their cytotoxicity for skin or body tissues are crucial. In this study, the cytotoxicity of target compounds was evaluated for human immortalised epidermal (HaCat) and human normal liver (LO2) cell line using MTT assay. […] The IC50 values of 5a, 6a, 10a, 16a, 16 b were about more than 50 μg/mL for LO2 and HaCat.
Cytotoxicity Testing with MTT Method
Human immortalized epidermal cells (HaCat) line were cultured in Dulbecco’s modified Eagle’s medium containing 10% fetal bovine serum, 1% penicillin, and 1% streptomycin at 37°C in a 5% CO2/95% air incubator MCO-15AC (SANYO). Human normal liver cells (LO2) line were cultured in Roswell Park Memorial Institute medium containing 10% fetal bovine serum, 1% penicillin, and 1% streptomycin at 37°C in a 5% CO2/95% air incubator MCO-15AC (SANYO). HaCat or LO2 cells in 96-well plate were adjusted to 1.0 × 10^5 cells mL-1 and cells were passed and cell supernatant was pour out before plating on glass slide at 37°C, 5% CO2 for 24 h. Cells were pretreated with 100 μL QAS for 24 h and cell supernatant with QAS was pour out and washed with PBS buffer system. Then, the cells were treated with the MTT solution (MTT, 3-(4,5-dimethythiazol-2-yl)-2,5-diphenyl-tetrazolium bromide, 20 μL, 5 mg/mL) for 4 h. The dark blue formazan crystal formed in the intact cells was solubilized with dimethyl sulfoxide, and absorbance at 570 nm was measured with a microplate reader (Multiskan MK3-Thermo Labsystems, USA). The results were expressed as percentage of the control value from the normal cells without treatments of QAS. […]

P. aeruginosa [1] = assay: MBC, agar plating of dilutions without growth; assay type: cell-based; settings: 99.9% bactericidal; for MBC: Pseudomonas aeruginosa, read-out: Minimal bactericidal concentration (MBC)
Description: (§1) In this paper, antimicrobial activities of 24 QASs were detected by quantitative tests. […] Benzalkonium chloride (BZK) and chlorhexidine acetate (CA) was selected as positive controls. Representative compound POT-C12QAS (2) which synthesised and evaluated in previous work was also taken as a reference compound in MIC, MBC and cytotoxicity tests. […]
(§2) agriculture were used as target pathogens in this study, including three strains of Gram-positive bacteria (S. Aureus, α-H-tococcus, β-H-tococcus), three strains of Gram-negative bacteria (E. coli, P. aeruginosa, Proteus vulgaris) and four strains of fungi (Canidia albicans, Cytospora mandshurica, Physalospora piricola, Aspergillus niger). The antimicrobial tests were assayed, according to standard CLSI methods for antimicrobial dilution susceptibility tests to measure the minimum inhibitory concentration (MIC) and minimum bactericidal concentration (MBC)2.
(§3) A broth tube dilution method was followed to determine the MIC values for all the screened compounds against the micro-organisms, and for comparison benzalkonium chloride (BZK) and chlorhexidine acetate (CA) was used as a reference. For sample preparation, each of the test compounds and reference were dissolved in DMSO or sterile water at a concentration of 1600 μg/mL, and further dilutions of the compounds and reference in culture medium MHB (Muller-Hinton Broth) were prepared at the required quantities of 400, 200, 100 etc., down to 0.39 μg/mL. Bacterial strains and fungal strains were maintained on MHA (Muller-Hinton Agar) medium at 37℃ or 28 ℃ for 12 h or 72h, respectively. The microbial inocula were prepared by suspension in 10 mL of culture medium for colonies from culture on MHA. The cell density of each inoculum was adjusted in culture medium of a 0.5 McFarland standard (1-2×10^8 CFU/mL). The final amount applied was 10^5 CFU/mL for bacteria and fungi. The microbial inocula were added to the twofold diluted samples. One growth control tube was prepared […] the addition of the compound and one blank tube was prepared without the addition of the microorganism. MIC values were read after incubation at 37℃ or 28 ℃ for bacterial and fungal strains, respectively. After 12 h or 72h, the last tube with no growth of micro-organisms was recorded to represent the MIC value expressed in μg/ml. All experiments were carried out three times. […]
(§4) was placed on agar plates in triplicate, and incubated at 37℃ or 28 ℃ for 12 h or 72h. The number of colonies on each plate was read, and the MBC was determined as the lowest concentration that achieved a 99.9% bactericidal in the agar plate.

Physalospora piricola [2] = assay: MBC, agar plating of dilutions without growth; assay type: cell-based; settings: 99.9% bactericidal; for MBC: read-out: Minimal bactericidal concentration (MBC)
Description: as §1, §2, §3, §4

Canidia albicans [3] = assay: MBC, agar plating of dilutions without growth; assay type: cell-based; settings: 99.9% bactericidal; for MBC: read-out: Minimal bactericidal concentration (MBC)
Description: as §1, §2, §3, §4

Proteus vulgaris [4] = assay: MBC, agar plating of dilutions without growth; assay type: cell-based; settings: 99.9% bactericidal; for MBC: read-out: Minimal bactericidal concentration (MBC)
Description: as §1, §2, §3, §4

S. aureus [5] = assay: MBC, agar plating of dilutions without growth; assay type: cell-based; settings: 99.9% bactericidal; for MBC: Staphylococcus aureus, read-out: Minimal bactericidal concentration (MBC)
Description: as §1, §2, §3, §4

α-H-tococcus [6] = assay: MBC, agar plating of dilutions without growth; assay type: cell-based; settings: 99.9% bactericidal; for MBC: read-out: Minimal bactericidal concentration (MBC)
Description: as §1, §2, §3, §4

E. coli [7] = assay: MBC, agar plating of dilutions without growth; assay type: cell-based; settings: 99.9% bactericidal; for MBC: Escherichia coli, read-out: Minimal bactericidal concentration (MBC)
Description: as §1, §2, §3, §4

Aspergillus niger [8] = assay: MBC, agar plating of dilutions without growth; assay type: cell-based; settings: 99.9% bactericidal; for MBC: read-out: Minimal bactericidal concentration (MBC)
Description: as §1, §2, §3, §4

Cytospora mandshurica [9] = assay: MBC, agar plating of dilutions without growth; assay type: cell-based; settings: 99.9% bactericidal; for MBC: Cytospora, read-out: Minimal bactericidal concentration (MBC)
Description: as §1, §2, §3, §4

P. aeruginosa [10] = assay: MIC, broth tube dilution; assay type: cell-based; settings: 12 h, 37℃; for MIC: Pseudomonas aeruginosa, read-out: Minimal inhibitory concentration (MIC)
Description: as §1, §2, §3

Physalospora piricola [11] = assay: MIC, broth tube dilution; assay type: cell-based; settings: 28 ℃; for MIC: 72 h, read-out: Minimal inhibitory concentration (MIC)
Description: as §1, §2, §3

Canidia albicans [12] = assay: MIC, broth tube dilution; assay type: cell-based; settings: 28 ℃; for MIC: 72 h, read-out: Minimal inhibitory concentration (MIC)
Description: as §1, §2, §3

Proteus vulgaris [13] = assay: MIC, broth tube dilution; assay type: cell-based; settings: 12 h, 37℃; for MIC: read-out: Minimal inhibitory concentration (MIC)
Description: as §1, §2, §3

S. aureus [14] = assay: MIC, broth tube dilution; assay type: cell-based; settings: 12 h, 37℃; for MIC: Staphylococcus aureus, read-out: Minimal inhibitory concentration (MIC)
Description: as §1, §2, §3

α-H-tococcus [15] = assay: MIC, broth tube dilution; assay type: cell-based; settings: 12 h, 37℃; for MIC: read-out: Minimal inhibitory concentration (MIC)
Description: as §1, §2, §3

E. coli [16] = assay: MIC, broth tube dilution; assay type: cell-based; settings: 12 h, 37℃; for MIC: Escherichia coli, read-out: Minimal inhibitory concentration (MIC)
Description: as §1, §2, §3

Aspergillus niger [17] = assay: MIC, broth tube dilution; assay type: cell-based; settings: 28 ℃; for MIC: 72 h, read-out: Minimal inhibitory concentration (MIC)
Description: as §1, §2, §3

Cytospora mandshurica [18] = assay: MIC, broth tube dilution; assay type: cell-based; settings: 28 ℃; for MIC: Cytospora, 72 h, read-out: Minimal inhibitory concentration (MIC)
Description: as §1, §2, §3

β-H-tococcus = assay: MIC, broth tube dilution; assay type: cell-based; settings: 12 h, 37℃; for MIC: read-out: Minimal inhibitory concentration (MIC)
Description: as §1, §2, §3

[19] = LO2 human normal liver cells, LO2 cells

| Compound | IC50 at 24 h (Cytotoxicity, MTT assay; [19]) | MBC (P. aeruginosa [1]) | MBC (Physalospora piricola [2]) | MBC (Canidia albicans [3]) | MBC (Proteus vulgaris [4]) | MBC (S. aureus [5]) | MBC (α-H-tococcus [6]) | MBC (E. coli [7]) | MBC (Aspergillus niger [8]) | MBC (Cytospora mandshurica [9]) | MIC (P. aeruginosa [10]) | MIC (Physalospora piricola [11]) | MIC (Canidia albicans [12]) | MIC (Proteus vulgaris [13]) | MIC (S. aureus [14]) | MIC (α-H-tococcus [15]) | MIC (E. coli [16]) | MIC (Aspergillus niger [17]) | MIC (Cytospora mandshurica [18]) | MIC (β-H-tococcus) | also measured |
| --- | --- | --- | --- | --- | --- | --- | --- | --- | --- | --- | --- | --- | --- | --- | --- | --- | --- | --- | --- | --- | --- |
| C[N+](CCO)(CCO)CCCCCCCCSc1nnc(-c2ccc(C(F)(F)F)cc2)o1 [Compound 6b] | > 25 µg/mL | 50 µg/mL | 6.25 µg/mL | 25 µg/mL | 50 µg/mL | 25 µg/mL | 25 µg/mL | 50 µg/mL | 25 µg/mL | 12.5 µg/mL | 50 µg/mL | 3.12 µg/mL | 25 µg/mL | 50 µg/mL | 25 µg/mL | 12.5 µg/mL | 25 µg/mL | 12.5 µg/mL | 12.5 µg/mL | 12.5 µg/mL | IC50 at 24 h (Cytotoxicity, MTT assay; HaCat cells): > 25 µg/mL |
| Benzalkonium chloride [BZK, reference compound] | – | – | – | – | – | – | – | – | – | – | – | – | – | – | – | – | – | – | – | – | Minimal bactericidal concentration (MBC) (P. aeruginosa [1]): 25 µg/mL; Minimal bactericidal concentration (MBC) (Physalospora piricola [2]): 3.125 µg/mL; Minimal bactericidal concentration (MBC) (Canidia albicans [3]): 25 µg/mL; Minimal bactericidal concentration (MBC) (Proteus vulgaris [4]): 25 µg/mL; Minimal bactericidal concentration (MBC) (S. aureus [5]): 3.125 µg/mL; Minimal bactericidal concentration (MBC) (α-H-tococcus [6]): 3.125 µg/mL; Minimal bactericidal concentration (MBC) (E. coli [7]): 25 µg/mL; Minimal bactericidal concentration (MBC) (Aspergillus niger [8]): 6.25 µg/mL; Minimal bactericidal concentration (MBC) (Cytospora mandshurica [9]): 6.25 µg/mL; Minimal inhibitory concentration (MIC) (P. aeruginosa [10]): 25 µg/mL; Minimal inhibitory concentration (MIC) (Physalospora piricola [11]; 72h): 3.125 µg/mL; Minimal inhibitory concentration (MIC) (Canidia albicans [12]; 72h): 12.5 µg/mL; Minimal inhibitory concentration (MIC) (Proteus vulgaris [13]): 25 µg/mL; Minimal inhibitory concentration (MIC) (S. aureus [14]): 3.125 µg/mL; Minimal inhibitory concentration (MIC) (α-H-tococcus [15]): 3.125 µg/mL; Minimal inhibitory concentration (MIC) (E. coli [16]): 25 µg/mL; Minimal inhibitory concentration (MIC) (Aspergillus niger [17]; 72h): 3.125 µg/mL; Minimal inhibitory concentration (MIC) (Cytospora mandshurica [18]; 72h): 6.25 µg/mL; Minimal inhibitory concentration (MIC) (β-H-tococcus): 1.56 µg/mL |
| C[N+](CCO)(CCO)CCCCCCCCCCSc1nnc(-c2ccc(F)cc2)o1 [Compound 5c] | 23.9 ± 1.68 µg/mL | 50 µg/mL | 6.25 µg/mL | 25 µg/mL | 50 µg/mL | 25 µg/mL | 12.5 µg/mL | 50 µg/mL | 25 µg/mL | 12.5 µg/mL | 50 µg/mL | 3.12 µg/mL | 25 µg/mL | 50 µg/mL | 25 µg/mL | 12.5 µg/mL | 25 µg/mL | 25 µg/mL | 12.5 µg/mL | 6.25 µg/mL | IC50 at 24 h (Cytotoxicity, MTT assay; HaCat cells): 19.4 ± 1.23 µg/mL |
| C[N+](CCO)(CCO)CCCCCCCCCCCCSc1nnc(-c2ccc(F)cc2)o1 [Compound 5d] | 6.95 ± 0.62 µg/mL | 50 µg/mL | 3.12 µg/mL | 12.5 µg/mL | 25 µg/mL | 12.5 µg/mL | 12.5 µg/mL | 25 µg/mL | 25 µg/mL | 12.5 µg/mL | ~50 µg/mL | 3.12 µg/mL | 12.5 µg/mL | ~25 µg/mL | ~12.5 µg/mL | ~12.5 µg/mL | ~25 µg/mL | 25 µg/mL | 12.5 µg/mL | ~6.25 µg/mL | IC50 at 24 h (Cytotoxicity, MTT assay; HaCat cells): 6.14 ± 0.53 µg/mL |
| C[N+](CCO)(CCO)CCCCCCCCCCSc1nnc(-c2ccc(C(F)(F)F)cc2)o1.[Br-] [Compound 6c] | 19.6 ± 1.62 µg/mL | 50 µg/mL | 3.12 µg/mL | 25 µg/mL | 25 µg/mL | 25 µg/mL | 12.5 µg/mL | 25 µg/mL | 12.5 µg/mL | 12.5 µg/mL | 50 µg/mL | 3.12 µg/mL | 25 µg/mL | 25 µg/mL | 25 µg/mL | 12.5 µg/mL | 25 µg/mL | 12.5 µg/mL | 12.5 µg/mL | 6.25 µg/mL | IC50 at 24 h (Cytotoxicity, MTT assay; HaCat human immortalised epidermal cells, HaCat cells): 12.1 ± 1.57 µg/mL |
| [H]/N=C(\N/C(=N/[H])NCCCCCCNC(=N)NC(=N)Nc1ccc(Cl)cc1)Nc1ccc(Cl)cc1 [CA, chlorhexidine acetate, reference compound] | – | 25 µg/mL | 3.12 µg/mL | 12.5 µg/mL | 12.5 µg/mL | 6.25 µg/mL | 6.25 µg/mL | 12.5 µg/mL | 6.25 µg/mL | 6.25 µg/mL | 25 µg/mL | 1.56 µg/mL | 12.5 µg/mL | 12.5 µg/mL | 3.12 µg/mL | 6.25 µg/mL | 6.25 µg/mL | 3.12 µg/mL | 6.25 µg/mL | 1.56 µg/mL | – |
